What was measured:
Apolipoprotein L1 = Apolipoprotein L1 (Homo sapiens, UniProt O14791); assay: Inhibition of APOL1 G1 variant in human HEK293-T-REx cells measured by Thallium assay; assay type: cell-based
[1] = test system: Trypanosoma brucei brucei; assay: Antitrypanosomal activity against Trypanosoma brucei brucei assessed as trypanosome lysis using recombinant APOL1 protein G1 variant and measured by Alamar blue based fluoresence assay; assay type: functional, organism-based

Compound	IC50 (Apolipoprotein L1)	IC50 [1]
CC(O)CN(CCO)C(=O)[C@H]1C[C@H](c2c(-c3ccc(F)cc3)[nH]c3c(F)cc(F)cc32)C1 (some centres not stated)	0.25 nM	< 250 nM
CCN(CCO)C(=O)[C@H]1C[C@H](c2c(-c3ccc(F)cc3)[nH]c3c(F)cc(F)cc32)C1	0.25 nM	250 nM
O=C(NC1(CO)CCOC1)[C@H]1C[C@H](c2c(-c3ccc(F)cc3)[nH]c3c(F)cc(F)cc32)C1 (some centres not stated)	< 250 nM	< 250 nM
NC(=O)[C@H]1CCN(C(=O)[C@H]2C[C@H](c3c(-c4ccc(F)cc4)[nH]c4c(F)cc(F)cc43)C2)C1	> 1000 nM	> 1000 nM
O=C(NCc1ccn[nH]1)[C@H]1C[C@H](c2c(-c3ccc(F)cc3)[nH]c3c(F)cc(F)cc32)C1	0.25 nM	250 nM
O=C(NC1(CO)CC(F)(F)C1)[C@H]1C[C@H](c2c(-c3ccc(F)cc3)[nH]c3c(F)cc(F)cc32)C1	0.25 nM	< 250 nM
O=C([C@H]1C[C@H](c2c(-c3ccc(F)cc3)[nH]c3c(F)cc(F)cc32)C1)N1CCOC(O)C1 (some centres not stated)	0.25 nM	< 250 nM
CCNC(=O)[C@@H]1CCCN1C(=O)[C@H]1C[C@H](c2c(-c3ccc(F)cc3)[nH]c3c(F)cc(F)cc32)C1	> 1000 nM	> 1000 nM
O=C(NCC1(O)CC1)[C@H]1C[C@H](c2c(-c3ccc(F)cc3)[nH]c3c(F)cc(F)cc32)C1	0.25 nM	250 nM
CS(=O)(=O)CCNC(=O)[C@H]1C[C@H](c2c(-c3ccc(F)cc3)[nH]c3c(F)cc(F)cc32)C1	< 250 nM	> 1000 nM
Cc1ccn(CCNC(=O)[C@H]2C[C@H](c3c(-c4ccc(F)cc4)[nH]c4c(F)cc(F)cc43)C2)n1	> 1000 nM	250 nM
COC[C@@H]1CCN1C(=O)[C@H]1C[C@H](c2c(-c3ccc(F)cc3)[nH]c3c(F)cc(F)cc32)C1	> 1000 nM	< 250 nM
O=C(NCc1nnco1)[C@H]1C[C@H](c2c(-c3ccc(F)cc3)[nH]c3c(F)cc(F)cc32)C1	0.25 nM	< 250 nM
O=C([C@H]1C[C@H](c2c(-c3ccc(F)cc3)[nH]c3c(F)cc(F)cc32)C1)N1CCC(O)(O)CC1	> 1000 nM	250 nM
O=C(NCCn1cccc1)[C@H]1C[C@H](c2c(-c3ccc(F)cc3)[nH]c3c(F)cc(F)cc32)C1	> 1000 nM	250 nM
N#CC(CO)NC(=O)[C@H]1C[C@H](c2c(-c3ccc(F)cc3)[nH]c3c(F)cc(F)cc32)C1 (some centres not stated)	< 250 nM	< 250 nM
Cn1ncc(CNC(=O)[C@H]2C[C@H](c3c(-c4ccc(F)cc4)[nH]c4c(F)cc(F)cc43)C2)n1	0.25 nM	< 250 nM
Cn1cc(CNC(=O)[C@H]2C[C@H](c3c(-c4ccc(F)cc4)[nH]c4c(F)cc(F)cc43)C2)cn1	> 1000 nM	250 nM
C[C@]1(NC(=O)[C@H]2C[C@H](c3c(-c4ccc(F)cc4)[nH]c4c(F)cc(F)cc43)C2)C[C@@H](O)C1	0.25 nM	250 nM
O=C1CC[C@@H](NC(=O)[C@H]2C[C@H](c3c(-c4ccc(F)cc4)[nH]c4c(F)cc(F)cc43)C2)C1	> 1000 nM	> 1000 nM
O=C([C@H]1C[C@H](c2c(-c3ccc(F)cc3)[nH]c3c(F)cc(F)cc32)C1)N1CCCC[C@@H]1CO	> 1000 nM	250 nM
O=C(N[C@H]1CC[C@@H](CO)O1)[C@H]1C[C@H](c2c(-c3ccc(F)cc3)[nH]c3c(F)cc(F)cc32)C1	> 1000 nM	> 1000 nM
CS(=O)(=O)NC(=O)[C@H]1C[C@H](c2c(-c3ccc(F)cc3)[nH]c3c(F)cc(F)cc32)C1	> 1000 nM	> 1000 nM
CCC(O)(CCCO)CNC(=O)[C@H]1C[C@H](c2c(-c3ccc(F)cc3)[nH]c3c(F)cc(F)cc32)C1 (some centres not stated)	> 1000 nM	> 1000 nM
O=C([C@H]1C[C@H](c2c(-c3ccc(F)cc3)[nH]c3c(F)cc(F)cc32)C1)N1CCCC(CO)C1 (some centres not stated)	> 1000 nM	> 1000 nM
O=C([C@H]1C[C@H](c2c(-c3ccc(F)cc3)[nH]c3c(F)cc(F)cc32)C1)N1CCC[C@H]1CO	> 1000 nM	250 nM
